pEC50: −log10 of the molar value. Where two headings read alike, the source gives them in different places.
System: recombinant NL4-3 virus (NLRluc, Renilla luciferase in nef, Gag P373S)
Assay: HIV cell culture assay (Renilla luciferase reporter virus in MT-2 cells)
Format: cell-based
Description: MT-2 cells and 293T cells were obtained from the NIH AIDS Research and Reference Reagent Program. MT-2 cells were propagated in RPMI 1640 media supplemented with 10% heat inactivated fetal bovine serum, […]. The 293T cells were propagated in DMEM media supplemented with 10% heat inactivated fetal bovine serum (FBS), 100 units/ml penicillin G and 100 μg/ml streptomycin. The proviral DNA clone of NL4-3 was obtained from the NIH AIDS Research and Reference Reagent Program. A recombinant NL4-3 virus, in which a section of the nef gene from NL4-3 was replaced with the Renilla luciferase gene, was used as a reference virus. In addition, residue Gag P373 was converted to P373S. Briefly, the recombinant virus was prepared by transfection of the altered proviral clone of NL4-3. Transfections were performed in 293T cells using LipofectAMINE PLUS from Invitrogen (Carlsbad, Calif.), according to manufacturer's instruction. The virus was titered in MT-2 cells using luciferase enzyme activity as a marker. Luciferase was quantitated using the Dual Luciferase kit from Promega (Madison, Wis.), with modifications to the manufacturer's protocol. The diluted Passive Lysis solution was pre-mixed with the re-suspended Luciferase Assay Reagent and the re-suspended Stop & Glo Substrate (2:1:1 ratio). Fifty (50) μL of the mixture was added to each aspirated well on assay plates and luciferase activity was measured immediately on a Wallac TriLux (Perkin-Elmer). Antiviral activities of inhibitors toward the recombinant virus were quantified by measuring luciferase activity in cells infected for 4-5 days with NLRluc recombinants in the presence serial dilutions of the inhibitor. Table 16 is the key for the data in Table 17.

[1] = Renilla, NL43, read-out: 10% FBS EC50, 10% FBS, numeric values
[2] = Renilla, NL43, read-out: 10% FBS EC50, 10% FBS, class symbols A/B/C

SMILES	pEC50 [1]	pEC50 [2]	also measured
Cc1ncc(C)n2nc(-c3ccc4c(c3)nc(-c3ccccc3C(=O)N3CC=C5C(C)(C)C(c6ccc(C(=O)O)cc6)=CC[C@]5(C)C3)n4C)nc12 [Example A278]	5.30		
CC1(C)C(c2ccc(C(=O)O)cc2)=CC[C@]2(C)CN(C(=O)c3ccc(C(=O)N4CC=C5C(C)(C)C(c6ccc(C(=O)O)cc6)=CC[C@]5(C)C4)s3)CC=C12 [Example 62]		< 5.52	
CN1Cc2c(ccc3nc(-c4ccccc4C(=O)N4CC=C5C(C)(C)C(c6ccc(C(=O)O)cc6)=CC[C@]5(C)C4)[nH]c23)C(c2ccccc2)C1 (some centres unmarked) [Example 101]			pEC50 (read-out: 10% FBS EC50, 10% FBS, numeric values): 5.53
CN1CCC2C(C)(C)[C@@H](c3ccc(C(=O)O)cc3)CC[C@]2(C)C1 (single isomer, unassigned) [Example 91]		< 5.52	
CC(C)C[C@@H](NC(=O)OC(C)(C)C)C(=O)N1CCC(C(=O)N2CC=C3C(C)(C)[C@@H](c4ccc(C(=O)O)cc4)CC[C@]3(C)C2)(c2ccccc2)CC1 [Example 88]		> 6.30	
CC1(C)C(c2ccc(C(=O)O)cc2)=CC[C@]2(C)CN(C(=O)c3ccccc3-c3nc4ccc(Cl)cc4o3)CC=C12 [Example A318]		> 6.30	
Cc1cc2nc(-c3ccccc3C(=O)N3CC=C4C(C)(C)C(c5ccc(C(=O)O)cc5)=CC[C@]4(C)C3)[nH]c2cc1C [Example 97, (S)-4-(2-(2-(5,6-dimethyl-1H-benzo[d]imidazol-2-yl)benzoyl)-5,5,8a-trimethyl-1,2,3,5,8,8a-hexahydroisoquinolin-6-yl)benzoic acid]	7.29		
CC1(C)C(c2ccc(C(=O)O)cc2)=CC[C@@]2(C)CN(C(=O)c3ccccc3-c3nc4c(ccc5ccccc54)o3)CC=C12 [Example A324]		> 6.30	
CC1(C)C(c2ccc(C(=O)O)cc2)=CC[C@]2(C)CN(C(=O)c3ccccc3-c3nc4c(Cl)cc(Cl)cc4[nH]3)CC=C12 [Example A268]	7.85		
CC1(C)C(c2ccc(C(=O)O)cc2)=CC[C@]2(C)CN(C(=O)c3cscc3C(=O)NCCCN3CCS(=O)(=O)CC3)CC=C12 [Example 73]		< 5.52	
Cn1nc(-c2ccccc2)c(C(=O)N2CC=C3C(C)(C)C(c4ccc(C(=O)O)cc4)=CC[C@]3(C)C2)c1Cl [Example A79]	6.06		
COCCn1c(-c2ccccc2C(=O)N2CC=C3C(C)(C)C(c4ccc(C(=O)O)cc4)=CC[C@]3(C)C2)nc2cc(C(=O)O)ccc21 [Example A296]		< 5.52	
CC1(C)C(c2ccc(C(=O)O)cc2)=CC[C@]2(C)CN(C(=O)c3ccc(CN4CCS(=O)(=O)CC4)cc3)CC=C12 [Example 31]		< 5.52	
CC1(C)C(c2ccc(C(=O)O)cc2)=CC[C@]2(C)CN(C(=O)c3cccc(C(=O)N4CC=C5C(C)(C)C(c6ccc(C(=O)O)cc6)=CC[C@]5(C)C4)n3)CC=C12 [Example 61]		< 5.52	
CC(C)(C)OC(=O)N1CCN(c2ccccc2C(=O)N2CC=C3C(C)(C)C(c4ccc(C(=O)O)cc4)=CC[C@]3(C)C2)CC1 [Example 11, (S)-4-(2-(2-(4-(tert-butoxycarbonyl)piperazin-1-yl)benzoyl)-5,5,8a-trimethyl-1,2,3,5,8,8a-hexahydroisoquinolin-6-yl)benzoic acid]	6.34		
CC1(C)C(c2ccc(C(=O)O)cc2)=CC[C@]2(C)CN(C(=O)c3ccccc3N3CCNCC3)CC=C12 [Example 51, (S)-4-(5,5,8a-trimethyl-2-(2-(piperazin-1-yl)benzoyl)-1,2,3,5,8,8a-hexahydroisoquinolin-6-yl)benzoic acid]	6.06		
CC1(C)C2CCN(C(=O)c3ccccc3-c3nc4ccccc4[nH]3)C[C@@]2(C)CC[C@@H]1c1ccc(C(=O)O)cc1 (some centres unmarked) [Example 85]		> 6.30	
CC1(C)C(c2ccc(C(=O)O)cc2)=CC[C@]2(C)CN(C(=O)c3ccccc3-c3nc4ccccc4[nH]3)CC=C12 [Example A114]	7.28		
CC1(C)C(c2ccc(C(=O)O)cc2)=CC[C@]2(C)CN(C(=O)c3cncc(C(=O)N4CC=C5C(C)(C)C(c6ccc(C(=O)O)cc6)=CC[C@]5(C)C4)c3)CC=C12 [Example 63]		< 5.52	

SMILES	pEC50 [1]	pEC50 [2]	also measured
CC(C)C[C@H](N)C(=O)N1CCC(C(=O)N2CC=C3C(C)(C)C(c4ccc(C(=O)O)cc4)=CC[C@]3(C)C2)(c2ccccc2)CC1 [Example 56]		> 6.30	
CC1(C)C(c2ccc(C(=O)O)cc2)=CC[C@]2(C)CN(c3ccc(C(N)=O)cc3)CC=C12 [Example B17]		< 5.52	
CC(C)(C)OC(=O)N1CCCCC1CCC(=O)N1CCC(C(=O)N2CC=C3C(C)(C)C(c4ccc(C(=O)O)cc4)=CC[C@]3(C)C2)(c2ccccc2)CC1 (some centres unmarked) [Example A168]		> 6.30	
CC(C)(C)OC(=O)NCCn1c(-c2ccccc2C(=O)N2CC=C3C(C)(C)C(c4ccc(C(=O)O)cc4)=CC[C@]3(C)C2)nc2cc(C(F)(F)F)ccc21 [Example A283]	5.86		
CC1(C)C(c2ccc(C(=O)O)cc2)=CC[C@]2(C)CN(C(=O)c3ccc(F)cc3F)CC=C12 [Example 5]		< 5.52	
CN1Cc2c(ccc3nc(-c4ccccc4C(=O)N4CC=C5C(C)(C)C(c6ccc(C(=O)O)cc6)=CC[C@]5(C)C4)[nH]c23)C(c2ccccc2)C1 (some centres unmarked) [Example 100]	5.55		
CC1(C)C(c2ccc(C(=O)O)cc2)=CC[C@]2(C)CN(C(=O)c3ccccc3-c3nc4c([N+](=O)[O-])cccc4[nH]3)CC=C12 [Example A272]		> 6.30	
CC(C)(C)OC(=O)N1CSC[C@@H]1C(=O)N1CCC(C(=O)N2CC=C3C(C)(C)C(c4ccc(C(=O)O)cc4)=CC[C@]3(C)C2)(c2ccccc2)CC1 [Example A204]	6.51		
CC(C)C1(C(=O)N2CC=C3C(C)(C)C(c4ccc(C(=O)O)cc4)=CC[C@]3(C)C2)CCN(C(=O)OC(C)(C)C)CC1 [Example 49]	5.93		
CC1(C)C(c2ccc(C(=O)O)cc2)=CC[C@]2(C)CN(c3cc(-c4nnn(CCN5CCS(=O)(=O)CC5)n4)cc([N+](=O)[O-])c3)CC=C12 [Example B1, (S)-4-(2-(3-(2-(2-(1,1-dioxidothiomorpholino)ethyl)-2H-tetrazol-5-yl)-5-nitrophenyl)-5,5,8a-trimethyl-1,2,3,5,8,8a-hexahydroisoquinolin-6-yl)benzoic acid]	7.62		
CN1CCN(c2ccc(C(=O)N3CC=C4C(C)(C)C(c5ccc(C(=O)O)cc5)=CC[C@]4(C)C3)cc2)CC1 [Example 30]	5.64		
CC1(C)C(c2ccc(C(=O)O)cc2)=CC[C@]2(C)CN(C(=O)c3ccccc3-c3nc4cc(F)c(Cl)cc4[nH]3)CC=C12 [Example A260]	6.53		
CC1(C)C(c2ccc(C(=O)O)cc2)=CC[C@]2(C)CN(C(=O)[C@H]3C[C@@H]4C=C[C@H]3C4)CC=C12 [Example A86]		< 5.52	
CC1(C)C(c2ccc(C(=O)O)cc2)=CC[C@]2(C)CN(c3cc(C(=O)O)cc([N+](=O)[O-])c3)CC=C12 [Example B15]		< 5.52	
CN(C)CC(=O)N1CC=C2C(C)(C)C(c3ccc(C(=O)O)cc3)=CC[C@]2(C)C1 [Example 35]		< 5.52	
CC1(C)C(c2ccc(C(=O)O)cc2)=CC[C@]2(C)CN(C(=O)c3cccc(C(=O)O)c3)CC=C12 [Example 12]		< 5.52	
CC1(C)C(c2ccc(C(=O)O)cc2)=CC[C@]2(C)CN(C(=O)c3ccc4[nH]ccc4c3)CC=C12 [Example 43]		< 5.52	
CC(C)(C)OC(=O)N1CCC(C(=O)N2CC=C3C(C)(C)C(c4ccc(C(=O)O)cc4)=CC[C@]3(C)C2)(c2ccccc2)CC1 [Example 46]	6.60		
CC1(C)C(c2ccc(C(=O)O)cc2)=CC[C@]2(C)CN(C(=O)C(=O)O)CC=C12 [Example 10]		< 5.52	
